In patent US10420737B2, “Hepatotoxicity-free pharmaceutical composition containing acetaminophen drugs” (NATIONAL DEFENSE EDUCATION AND RESEARCH FOUNDATION, priority 2013, dated 2019):
Several values for one entry are separate records, joined by “and”; a condition that tells them apart may be missing. Equal entries are not always repeated. Entries after “also recorded” stand apart in the source; their conditions may differ.

Columns and labels:
[1] = molecular target: Cytochrome P450 2E1 (CYP2E1) (Rattus norvegicus, UniProt P05182); experiment: In-vitro screening of CYP2E1 inhibitors in rat liver microsomes (chlorzoxazone 6-hydroxylation)
Description: (§1) This example is preparation of microsomes from rat and human liver for in vitro screening of CYP2E1 inhibitors. A total of 55 safe and edible excipients are included in the screening for cytochrome P450 2E1 (CYP2E1) inhibitors. […] After addition of the test sample, the amount of CYP2E1 metabolite standard 6-OH—CZX (6-Hydroxy-Chlorzoxazone) is used for calculation of the CYP 2E1 inhibition ratio of the test sample by using the amount of 6-OH—CZX of the control group as the baseline.
(§2) Transfer to and pre-incubate the reaction mixture in a water bath at 37° C. for 1 minute. […] Incubate the sample for 1 minute and add internal standard (5 ug/mL 4-hydroxy-tobutamide).

[2] = molecular target: Cytochrome P450 2E1 (CYP2E1) (Homo sapiens, UniProt P05181); experiment: In-vitro screening of CYP2E1 inhibitors in human liver microsomes (chlorzoxazone 6-hydroxylation)
Description: as §1, §2

[3] = test system: Male SD (Sprague-Dawley) rats; experiment: APAP-induced hepatotoxicity in rats: plasma AST and ALT activity; format: in vivo, rat; details: for improvement of APAP liver damage (AST, ALT, GSP and Total HAI-score, in words): combined with APAP 1000 mg/kg, versus APAP hepatotoxicity group
Protocol: After completion of the treatments, rats were sacrificed under ether anesthesia, and blood was collected from the tail artery of the rats and placed in a test tube containing EDTA. The plasma was centrifuged at 13,000 at 4° C. for 15 minutes and the isolated plasma was transferred to Eppendorf tubes in aliquots and stored at −80° C.
Liver damage is quantified by measuring plasma AST and ALT activity. AST and ALT are common indicators of hepatotoxicity and are measured by using the Synchron LXi 725 system (Beckman Instruments, U.S.).

[4] = test system: Male SD (Sprague-Dawley) rats; experiment: APAP-induced hepatotoxicity in rats: histological liver tissue sections (Total HAI-score); details: for liver tissue sections, hepatocyte morphology (in words): liver protection groups + APAP 1000 mg/kg, H&E stain 200×, FIG. 2
[5] = test system: Male SD (Sprague-Dawley) rats; experiment: APAP-induced hepatotoxicity in rats: galactose single point (GSP) residual liver function test; format: in vivo, rat; details: excipient 1.67 mg/kg + APAP 1000 mg/kg, single oral dose
Protocol: After the study was completed, all rats were subjected to GSP test. Rats were i.v. injected with 0.4 g/ml BW galactose solution 0.5 g/kg within 30 seconds and one blood sample was collected at 5, 10, 15, 30, 45 and 60 minutes post injection from the tail vein. Colorimetric galactose dehydrogenase is used to quantify the concentration of galactose and the test concentration ranges from 50 to 1,000 μg/ml. The within-day variation of each concentration is calculated using standard deviation and coefficient of variation (CV) and the maximum allowable coefficient of variation is 10% CV, whereas day-to-day variation is examined by comparing the slope and intercept of calibration curves. The GSP is the blood galactose concentration obtained 60 seconds after stopping the 30-second injection.

[6] = rat, microsomes, 30 min, 16.5 μM, pH 7.4
[7] = rat, microsomes, 30 min, 33 μM, pH 7.4
[8] = rat, microsomes, 30 min, 66 μM, pH 7.4
[9] = APAP alone, single oral dose 1000 mg/kg, plasma, mean ± SD, 1000 mg/kg
[10] = rat liver microsomes, test concentration 16.5 μM
[11] = rat liver microsomes, test concentration 33 μM
[12] = rat liver microsomes, test concentration 66 μM
[13] = human liver microsomes, test concentration 16.5 μM
[14] = human liver microsomes, test concentration 33 μM
[15] = human liver microsomes, test concentration 66 μM
[16] = rat, microsomes, 30 min, 0.024 %, pH 7.4
[17] = rat, microsomes, 30 min, 0.084 % (w/v), pH 7.4
[18] = rat, microsomes, 30 min, 0.167 % (w/v), pH 7.4
[19] = excipient 1.67 mg/kg + APAP 1000 mg/kg, single oral dose
[20] = human, microsomes, 30 min, 16.5 μM, pH 7.4
[21] = human, microsomes, 30 min, 33 μM, pH 7.4
[22] = human, microsomes, 30 min, 66 μM, pH 7.4

Sequence of Cytochrome P450 2E1 (CYP2E1) (Rattus norvegicus, UniProt P05182) (P05182 whole entry): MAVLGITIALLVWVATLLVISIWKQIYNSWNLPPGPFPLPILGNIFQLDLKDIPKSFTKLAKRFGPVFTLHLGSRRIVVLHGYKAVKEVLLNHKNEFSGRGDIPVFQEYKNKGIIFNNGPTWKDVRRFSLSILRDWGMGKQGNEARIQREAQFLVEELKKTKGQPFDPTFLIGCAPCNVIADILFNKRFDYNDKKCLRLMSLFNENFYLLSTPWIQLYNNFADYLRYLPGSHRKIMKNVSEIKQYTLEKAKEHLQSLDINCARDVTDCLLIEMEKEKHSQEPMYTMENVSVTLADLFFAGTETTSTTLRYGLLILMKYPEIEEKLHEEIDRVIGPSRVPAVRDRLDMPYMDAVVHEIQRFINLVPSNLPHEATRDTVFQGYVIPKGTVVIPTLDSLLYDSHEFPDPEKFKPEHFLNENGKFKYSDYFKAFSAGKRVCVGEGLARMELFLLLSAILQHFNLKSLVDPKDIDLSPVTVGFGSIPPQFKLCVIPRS
Sequence of Cytochrome P450 2E1 (CYP2E1) (Homo sapiens, UniProt P05181) (P05181 whole entry): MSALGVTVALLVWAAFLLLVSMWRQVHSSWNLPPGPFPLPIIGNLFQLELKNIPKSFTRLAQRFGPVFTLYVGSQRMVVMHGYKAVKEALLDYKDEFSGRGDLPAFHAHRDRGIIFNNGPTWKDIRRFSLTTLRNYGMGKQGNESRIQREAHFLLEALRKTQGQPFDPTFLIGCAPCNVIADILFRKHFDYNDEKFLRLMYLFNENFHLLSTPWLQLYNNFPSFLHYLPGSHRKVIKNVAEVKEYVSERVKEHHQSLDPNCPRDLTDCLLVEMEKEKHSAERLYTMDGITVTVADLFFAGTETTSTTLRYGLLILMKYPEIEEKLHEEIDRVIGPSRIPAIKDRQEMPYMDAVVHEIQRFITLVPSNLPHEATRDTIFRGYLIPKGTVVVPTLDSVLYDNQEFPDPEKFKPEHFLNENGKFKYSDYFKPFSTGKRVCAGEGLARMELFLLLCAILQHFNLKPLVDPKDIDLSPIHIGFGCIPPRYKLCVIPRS

With `CCN(CC)C(=S)S` [DDTC, Diethyldithiocarbamic acid, reference compound] the “CYP 2E1 inhibition ratio” value ([1]; rat liver microsomes, test concentration 10 μM) was 8.6 ± 1.1%, the “CYP 2E1 inhibition ratio” value ([1]; rat liver microsomes, test concentration 50 μM) was 50.4 ± 1.1% and the “CYP 2E1 inhibition ratio” value ([1]; rat liver microsomes, test concentration 100 μM) was 89.2% and 89.2 ± 2.2%. The “CYP 2E1 inhibition ratio” value ([2]; human, microsomes, 30 min, 10 μM, pH 7.4) was 7.3 ± 1.0%, the “CYP 2E1 inhibition ratio” value ([2]; human, microsomes, 30 min, 50 μM, pH 7.4) was 49.8 ± 2.9% and the “CYP 2E1 inhibition ratio” value ([2]; human, microsomes, 30 min, 100 μM, pH 7.4) was 89.6 ± 0.9%.
With `O.OC[C@H]1O[C@@H](O[C@H]2[C@H](O)[C@@H](O)C(O)O[C@@H]2CO)[C@H](O)[C@@H](O)[C@H]1O` (stereo partly drawn) [Lactose monohydrate] the “CYP 2E1 inhibition ratio” value [1, 6] was 3.9 ± 2.3%, the “CYP 2E1 inhibition ratio” value [1, 7] was 7.8 ± 2.2% and the “CYP 2E1 inhibition ratio” value [1, 8] was 8.7 ± 3.8%.
With `CC(=O)Nc1ccc(O)cc1` [APAP, N-acetyl-para-aminophenol, reference compound] the ALT [3, 9] was 368±71 IU/L, the AST [3, 9] was 499±112 IU/L and the “Total HAI-score” value ([4]; APAP alone, single oral dose 1000 mg/kg, mean ± SD) was 4.9 ± 1.8.
`C/C=C/C=C/C(=O)O` [Sorbic acid] was tested, and the “CYP 2E1 inhibition ratio” value [1, 10] was 12.1 ± 5.7%, the “CYP 2E1 inhibition ratio” value [1, 11] was 13.2 ± 4.4% and the “CYP 2E1 inhibition ratio” value [1, 12] was 19.0 ± 5.6%. The “CYP 2E1 inhibition ratio” value [2, 13] was 8.4 ± 1.6%, the “CYP 2E1 inhibition ratio” value [2, 14] was 10.9 ± 2.7% and the “CYP 2E1 inhibition ratio” value [2, 15] was 14.8 ± 0.1%.
`CCCCCCCCCCCCCCCCCCCCCC(=O)OCC(O)CO` (stereo not drawn) [Glyceryl behenate] was tested, and the “CYP 2E1 inhibition ratio” value [1, 6] was 3.1 ± 0.2%, the “CYP 2E1 inhibition ratio” value [1, 7] was 3.1 ± 2.5% and the “CYP 2E1 inhibition ratio” value [1, 8] was 8.2 ± 2.0%.
For `O=C1NS(=O)(=O)c2ccccc21` [Saccharin], the “CYP 2E1 inhibition ratio” value [1, 10] was 35.3 ± 2.0%, the “CYP 2E1 inhibition ratio” value [1, 11] was 59.6 ± 3.3% and the “CYP 2E1 inhibition ratio” value [1, 12] was 67.4 ± 3.9%. The “CYP 2E1 inhibition ratio” value [2, 13] was 29.4 ± 2.7%, the “CYP 2E1 inhibition ratio” value [2, 14] was 51.2 ± 0.9% and the “CYP 2E1 inhibition ratio” value [2, 15] was 78.5 ± 2.1%.
With `O=C([O-])c1ccccc1.[Na+]` [Sodium benzoate] the “CYP 2E1 inhibition ratio” value [1, 10] was 7.1 ± 2.0%, the “CYP 2E1 inhibition ratio” value [1, 11] was 7.8 ± 4.1% and the “CYP 2E1 inhibition ratio” value [1, 12] was 15.8 ± 0.9%.
`OCc1ccccc1` [Benzyl alcohol] was tested, and the “CYP 2E1 inhibition ratio” value [1, 16] was 8.2 ± 2.0%, the “CYP 2E1 inhibition ratio” value [1, 17] was 6.7 ± 1.0% and the “CYP 2E1 inhibition ratio” value [1, 18] was −10.3 ± 6.3%.
`CC1CCC(C(C)C)C(O)C1` (stereo not drawn) [Menthol] was tested, and the “improvement of APAP liver damage (AST, ALT, GSP and Total HAI-score, in words)” value (“improvement of APAP liver damage” below) [3] was “significant decrease”, the ALT [3, 19] was 109 ± 23 IU/L and the AST [3, 19] was 187 ± 21 IU/L. For the same compound, the “Total HAI-score” value [4, 19] was 11 ± 1.2, the “liver tissue sections, hepatocyte morphology (in words)” value ([4]; single oral dose) was “more intact around the central vein and have a apparent nucleus with less vacuolization; also recorded: hepatocytes are relatively intact with visible nucleus and less vacuolization” and the “CYP 2E1 inhibition ratio” value [1, 10] was 7.2 ± 2.9%. The “CYP 2E1 inhibition ratio” value [1, 11] was 15.3 ± 7.9%, the “CYP 2E1 inhibition ratio” value [1, 12] was 36.4 ± 0.3% and the GSP [5] was 289 ± 20 mg/L. The “CYP 2E1 inhibition ratio” value [2, 13] was 10.5 ± 0.4%, the “CYP 2E1 inhibition ratio” value [2, 14] was 20.8 ± 2.1% and the “CYP 2E1 inhibition ratio” value [2, 15] was 30.8 ± 0.3%.
With `OC[C@H]1O[C@H](O[C@]2(CCl)O[C@H](CCl)[C@@H](O)[C@@H]2O)[C@H](O)[C@@H](O)[C@H]1Cl` [Sucralose] the “improvement of APAP liver damage” value [3] was “significant decrease”, the ALT [3, 19] was 83 ± 23 IU/L and the AST [3, 19] was 199 ± 24 IU/L. The “Total HAI-score” value [4, 19] was 0.6 ± 0.4, the “liver tissue sections, hepatocyte morphology (in words)” value ([4]; single oral dose) was “most similar to the liver tissue sections of normal rats; also recorded: hepatocytes are relatively intact with visible nucleus and less vacuolization” and the “CYP 2E1 inhibition ratio” value [1, 6] was 41.1 ± 2.7%. For the same compound, the “CYP 2E1 inhibition ratio” value [1, 7] was 46.8 ± 0.8%, the “CYP 2E1 inhibition ratio” value [1, 8] was 54.0 ± 4.2% and the GSP [5] was 218 ± 31 mg/L. The “CYP 2E1 inhibition ratio” value [2, 20] was 37.1 ± 2.8%, the “CYP 2E1 inhibition ratio” value [2, 21] was 45.8 ± 4.0% and the “CYP 2E1 inhibition ratio” value [2, 22] was 55.8 ± 2.0%.
With `OC[C@@H](O)[C@@H](O)[C@H](O)[C@@H](O)CO` [Sorbitol] the “CYP 2E1 inhibition ratio” value [1, 16] was 6.4 ± 0.5%, the “CYP 2E1 inhibition ratio” value [1, 17] was 5.6 ± 0.5% and the “CYP 2E1 inhibition ratio” value [1, 18] was 16.1 ± 0.7%.
In the case of `CCCOC(=O)c1ccc(O)cc1` [Propylparaben], the “CYP 2E1 inhibition ratio” value [1, 6] is reported as −4.1 ± 1.2%, the “CYP 2E1 inhibition ratio” value [1, 7] is reported as −17.2 ± 2.4% and the “CYP 2E1 inhibition ratio” value [1, 8] is reported as −27.3 ± 3.7%.
With `CCCCCCCCCCCCOS(=O)(=O)[O-].[Na+]` [Sodium lauryl sulfate] the “CYP 2E1 inhibition ratio” value [1, 10] was 4.6 ± 1.1%, the “CYP 2E1 inhibition ratio” value [1, 11] was 6.4 ± 0.9% and the “CYP 2E1 inhibition ratio” value [1, 12] was 4.8 ± 1.2%.
`O=C(O)CC(O)(CC(=O)O)C(=O)O` [Citric acid] was tested, and the “CYP 2E1 inhibition ratio” value [1, 10] was 7.5 ± 2.3%, the “CYP 2E1 inhibition ratio” value [1, 11] was 12.4 ± 2.2% and the “CYP 2E1 inhibition ratio” value [1, 12] was 27.6 ± 3.6%. For the same compound, the “CYP 2E1 inhibition ratio” value [2, 13] was 9.9 ± 3.1%, the “CYP 2E1 inhibition ratio” value [2, 14] was 15.5 ± 1.5% and the “CYP 2E1 inhibition ratio” value [2, 15] was 20.5 ± 1.8%.
For `O.O.O=P([O-])([O-])O.[Ca+2]` [Dicalcium phosphate dihydrate], the “improvement of APAP liver damage” value [3] was “not as expected”, the ALT [3, 19] was 196 ± 65 IU/L and the AST [3, 19] was 315 ± 42 IU/L. The “Total HAI-score” value [4, 19] was 3.1 ± 1.1, the “liver tissue sections, hepatocyte morphology (in words)” value ([4]; single oral dose) was “except for the dicalcium phosphate group” and the “CYP 2E1 inhibition ratio” value [1, 10] was 55.0 ± 4.6%. The “CYP 2E1 inhibition ratio” value [1, 11] was 62.0 ± 2.6%, the “CYP 2E1 inhibition ratio” value [1, 12] was 76.7 ± 0.8% and the GSP ([5]; phosphate dihydrate) was 444 ± 60 mg/L. The “CYP 2E1 inhibition ratio” value [2, 13] was 31.2 ± 2.9%, the “CYP 2E1 inhibition ratio” value [2, 14] was 56.8 ± 2.2% and the “CYP 2E1 inhibition ratio” value [2, 15] was 60.1 ± 0.3%.
`CC1=CC(=O)NS(=O)(=O)O1` [Acesulfame potassium] was tested, and the “CYP 2E1 inhibition ratio” value [1, 10] was 3.9 ± 2.7%, the “CYP 2E1 inhibition ratio” value [1, 11] was 7.1 ± 2.3% and the “CYP 2E1 inhibition ratio” value [1, 12] was 14.5 ± 1.9%.
In the case of Magnesium stearate, the “CYP 2E1 inhibition ratio” value [1, 10] is reported as 2.0 ± 1.0%, the “CYP 2E1 inhibition ratio” value [1, 11] is reported as 3.0 ± 0.7% and the “CYP 2E1 inhibition ratio” value [1, 12] is reported as 5.0 ± 1.6%.
For `OC[C@@H](O)[C@@H](O)[C@H](O)[C@H](O)CO` [Mannitol], the “improvement of APAP liver damage” value [3] was “significant decrease”, the ALT [3, 19] was 79 ± 34 IU/L and the AST [3, 19] was 201 ± 30 IU/L. The “Total HAI-score” value [4, 19] was 0.8 ± 0.3, the “liver tissue sections, hepatocyte morphology (in words)” value ([4]; single oral dose) was “more intact around the central vein and have a apparent nucleus with less vacuolization; also recorded: hepatocytes are relatively intact with visible nucleus and less vacuolization” and the “CYP 2E1 inhibition ratio” value [1, 6] was 40.9 ± 2.8%. For the same compound, the “CYP 2E1 inhibition ratio” value [1, 7] was 51.0 ± 2.7%, the “CYP 2E1 inhibition ratio” value [1, 8] was 60.6 ± 3.3% and the GSP [5] was 253 ± 29 mg/L. For the same compound, the “CYP 2E1 inhibition ratio” value [2, 20] was 44.8 ± 1.8%, the “CYP 2E1 inhibition ratio” value [2, 21] was 51.2 ± 2.1% and the “CYP 2E1 inhibition ratio” value [2, 22] was 54.5 ± 4.2%.
For `COC(=O)c1ccc(O)cc1` [Methylparaben], the “CYP 2E1 inhibition ratio” value [1, 6] was 4.6 ± 3.2%, the “CYP 2E1 inhibition ratio” value [1, 7] was −14.6 ± 4.1% and the “CYP 2E1 inhibition ratio” value [1, 8] was −21.5 ± 2.0%.
